From US7687547B2, “Diphenyl ether antimicrobial compounds” (Research Foundation of State University of New York, priority 2004, dated 2010) come the findings set out here.

≈ marks a conversion by molar mass, not a printed value. Like-named read-outs stand apart in the source and are kept apart here.

In experiment [1] the target is InhA (Mycobacterium tuberculosis, UniProt P9WGR1). The experiment is described as follows: InhA enzyme inhibition IC50 (NADH oxidation at 340 nm, DD-CoA substrate). The experiment is classed as biochemical, M. tuberculosis.
Chain of InhA (P9WGR1 whole entry, looked up): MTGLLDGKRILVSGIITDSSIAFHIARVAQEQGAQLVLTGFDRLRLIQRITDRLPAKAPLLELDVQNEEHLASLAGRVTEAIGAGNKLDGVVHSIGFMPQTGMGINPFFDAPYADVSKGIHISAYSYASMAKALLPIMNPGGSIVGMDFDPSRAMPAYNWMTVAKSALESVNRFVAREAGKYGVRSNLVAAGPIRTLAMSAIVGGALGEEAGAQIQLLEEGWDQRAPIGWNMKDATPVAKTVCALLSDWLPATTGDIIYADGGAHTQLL
Description: IC50 values were determined by measuring the enzyme activity at different inhibitor concentrations. The experimental data were analyzed using Equation 1, where I is the inhibitor concentration and Y is fraction activity. Y=1/(1+[I]/IC50) (1)
All experiments were carried out on a CARY-100 Bio (Varian) spectrophotometer at 25° C. The buffer used was 30 mM PIPES, 150 mM NaCl, pH 6.8. Kinetic parameters were determined spectrophotometrically by following the oxidation of NADH to NAD^+ at 340 nm (ε=6.3 nM^−1 cm^−1). Trans-2-dodecenoyl-CoA (DD-CoA) was used as a substrate. Two sets of conditions were used for the IC50 determinations.
For inhibitors with IC50 values above 0.2 μM, reaction mixtures contained 250 μM NADH, 74 nM InhA, and 25 μM DD-CoA. […] In each case, the inhibitor concentration was varied over the range of 0-200 μM.
In experiment [2] the test system is Mycobacterium tuberculosis strain H37Rv. The experiment is described as follows: MIC99 microplate dilution growth inhibition. The following applies: M. tuberculosis H37Rv, 7H9 broth, 37° C., 3-5 days, lowest concentration inhibiting visible growth. The experiment is classed as cell-based.
Setting [3] is: InhA, 250 μM NADH, DD-CoA substrate, 25° C., pH 6.8, read-out: IC50.

In turn, `CCCCCCc1ccc(Oc2ccccc2)c(O)c1` [-(n-C6H13), 5-hexyl-2-phenoxyphenol] had a 50% inhibitory concentration (IC50) in experiment [1] of 10 nM. In experiment [2], this compound came in with an MIC99 of 0.93 µM (≈ 0.251 µg/mL).

On to `CCCCCCCCc1ccc(Oc2ccccc2)c(O)c1` [-(n-C8H17), 5-octyl-2-phenoxyphenol], for which the IC50 in experiment [1] (setting [3]) amounted to 5 nM.

For the compound `CCc1ccc(Oc2ccccc2)c(O)c1` [—C2H5, 5-ethyl-2-phenoxyphenol], in experiment [1] (setting [3]), the IC50 was determined as 2000 nM. In experiment [2], the MIC99 amounted to 3.75 µM (≈ 0.803 µg/mL).

`CCCCc1ccc(Oc2ccccc2)c(O)c1` [-(n-C4H9), 5-butyl-2-phenoxyphenol]: in experiment [1] (setting [3]), the IC50 turned out to be 80 nM. The same compound registered an MIC99 in experiment [2] of 0.93 µM (≈ 0.225 µg/mL).

Turning to `CCCCCc1ccc(Oc2ccccc2)c(O)c1` [-(n-C5H11), 5-pentyl-2-phenoxyphenol], in experiment [1] (setting [3]), the IC50 amounted to 17 nM. This compound also yielded an MIC99 in experiment [2] of 0.93 µM (≈ 0.238 µg/mL).
